Assay results taken from the supplement of paper PMC8967900.

Legend:
Test in all cases: selective drug sensitivity score (sDSS, relative to normal bone marrow) (sDSS (score)); higher = more potent and effective on the cell line relative to normal bone marrow cells
Conditions in all cases: 72 h
380 = test system: 380
697 = test system: 697
ALL-SIL = test system: ALL-SIL
CCRF-HSB2 = test system: CCRF-HSB2
COG-LL-317 = test system: COG-LL-317
COG-LL-332h = test system: COG-LL-332h
COG-LL-355h = test system: COG-LL-355h
COG-LL-402h = test system: COG-LL-402h
HPB-ALL = test system: HPB-ALL
JURKAT = test system: JURKAT
KARPAS-45 = test system: KARPAS-45
KASUMI-9 = test system: KASUMI-9
KOPN-8 = test system: KOPN-8
MHH-CALL-4 = test system: MHH-CALL-4
NALL-1 = test system: NALL-1
PEER = test system: PEER
RCH-ACV = test system: RCH-ACV
SUP-B15 = test system: SUP-B15
TANOUE = test system: TANOUE
TMD5 = test system: TMD5
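Further: ALL cell lines in 384-well plates, five doses spanning 10,000-fold, each plate scaled between vehicle and 100 µmol/L benzalkonium chloride controls, sDSS an adapted area-under-curve metric.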

## CCCS(=O)(=O)Nc1ccc(F)c(C(=O)c2c[nH]c3ncc(-c4ccc(Cl)cc4)cc23)c1F [Vemurafenib] (top concentration 10000 nM)
380
  selective drug sensitivity score: -1.14
697
  selective drug sensitivity score: 5.16
ALL-SIL
  selective drug sensitivity score: 3.06
CCRF-HSB2
  selective drug sensitivity score: 4.06
COG-LL-317
  selective drug sensitivity score: 3.26
COG-LL-332h
  selective drug sensitivity score: 2.96
COG-LL-355h
  selective drug sensitivity score: 0.86
COG-LL-402h
  selective drug sensitivity score: -1.14
HPB-ALL
  selective drug sensitivity score: -0.44
JURKAT
  selective drug sensitivity score: 2.26
KARPAS-45
  selective drug sensitivity score: 4.16
KASUMI-9
  selective drug sensitivity score: 1.66
KOPN-8
  selective drug sensitivity score: 6.56
MHH-CALL-4
  selective drug sensitivity score: -0.94
NALL-1
  selective drug sensitivity score: -0.34
PEER
  selective drug sensitivity score: 2.56
RCH-ACV
  selective drug sensitivity score: 3.36
SUP-B15
  selective drug sensitivity score: 2.26
TANOUE
  selective drug sensitivity score: -1.14
TMD5
  selective drug sensitivity score: 1.26

## CC[C@]1(O)C[C@H]2CN(CCc3c([nH]c4ccccc34)[C@@](C(=O)OC)(c3cc4c(cc3OC)N(C)[C@H]3[C@@](O)(C(=O)OC)[C@H](OC(C)=O)[C@]5(CC)C=CCN6CC[C@]43[C@@H]65)C2)C1 [Vinblastine] (top concentration 1000 nM)
380
  selective drug sensitivity score: 7
697
  selective drug sensitivity score: 12.5
ALL-SIL
  selective drug sensitivity score: 5.2
CCRF-HSB2
  selective drug sensitivity score: -3.4
COG-LL-317
  selective drug sensitivity score: -0.2
COG-LL-332h
  selective drug sensitivity score: -4.2
COG-LL-355h
  selective drug sensitivity score: -0.6
COG-LL-402h
  selective drug sensitivity score: 4.6
HPB-ALL
  selective drug sensitivity score: 19.7
JURKAT
  selective drug sensitivity score: 0.5
KARPAS-45
  selective drug sensitivity score: -4.2
KASUMI-9
  selective drug sensitivity score: 14.9
KOPN-8
  selective drug sensitivity score: 12.8
MHH-CALL-4
  selective drug sensitivity score: -5.6
NALL-1
  selective drug sensitivity score: -3.8
PEER
  selective drug sensitivity score: -0.9
RCH-ACV
  selective drug sensitivity score: 14.4
SUP-B15
  selective drug sensitivity score: 12.9
TANOUE
  selective drug sensitivity score: -9
TMD5
  selective drug sensitivity score: -4.9

## CC[C@]1(O)C[C@H]2CN(CCc3c([nH]c4ccccc34)[C@@](C(=O)OC)(c3cc4c(cc3OC)N(C=O)[C@H]3[C@@](O)(C(=O)OC)[C@H](OC(C)=O)[C@]5(CC)C=CCN6CC[C@]43[C@@H]65)C2)C1 [Vincristine] (top concentration 1000 nM)
380
  selective drug sensitivity score: 14.9
697
  selective drug sensitivity score: 17
ALL-SIL
  selective drug sensitivity score: 13.1
CCRF-HSB2
  selective drug sensitivity score: 1.62
COG-LL-317
  selective drug sensitivity score: 8.92
COG-LL-332h
  selective drug sensitivity score: 4.22
COG-LL-355h
  selective drug sensitivity score: 1.22
COG-LL-402h
  selective drug sensitivity score: 13.7
HPB-ALL
  selective drug sensitivity score: 14.1
JURKAT
  selective drug sensitivity score: 4.52
KARPAS-45
  selective drug sensitivity score: 5.92
KASUMI-9
  selective drug sensitivity score: 15.9
KOPN-8
  selective drug sensitivity score: 15.8
MHH-CALL-4
  selective drug sensitivity score: -2.28
NALL-1
  selective drug sensitivity score: -0.88
PEER
  selective drug sensitivity score: 6.82
RCH-ACV
  selective drug sensitivity score: 17.2
SUP-B15
  selective drug sensitivity score: 18.5
TANOUE
  selective drug sensitivity score: -11.1
TMD5
  selective drug sensitivity score: -0.08

## FC(F)c1nc2ccccc2n1-c1nc(N2CCOCC2)nc(N2CCOCC2)n1 [ZSTK474] (top concentration 10000 nM)
380
  selective drug sensitivity score: 13.7
697
  selective drug sensitivity score: 8.46
ALL-SIL
  selective drug sensitivity score: 2.46
CCRF-HSB2
  selective drug sensitivity score: 3.76
COG-LL-317
  selective drug sensitivity score: 1.46
COG-LL-332h
  selective drug sensitivity score: 3.86
COG-LL-355h
  selective drug sensitivity score: 14.4
COG-LL-402h
  selective drug sensitivity score: 13.6
HPB-ALL
  selective drug sensitivity score: -1.04
JURKAT
  selective drug sensitivity score: 1.76
KARPAS-45
  selective drug sensitivity score: 5.96
KASUMI-9
  selective drug sensitivity score: 9.86
KOPN-8
  selective drug sensitivity score: 11.9
MHH-CALL-4
  selective drug sensitivity score: 7.46
NALL-1
  selective drug sensitivity score: 1.96
PEER
  selective drug sensitivity score: -3.64
RCH-ACV
  selective drug sensitivity score: 28.4
SUP-B15
  selective drug sensitivity score: 2.56
TANOUE
  selective drug sensitivity score: -7.04
TMD5
  selective drug sensitivity score: -1.04
